Columns and labels:
IKZF2 = IKZF2 (Homo sapiens (Human), UniProt Q96SW2+Q9UKS7); experiment: In vitro IKZF2 HiBit Assay (HEK293T Flp-in-HiBiT cells); format: cell-based; settings: HEK293T Flp-in-HiBiT cells, 6 hrs incubation; for DC50: read-out: IKZF2 HiBit DC50; for Dmax: HEK-293T, read-out: IKZF2 HiBit Dmax (%)
Method in brief: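 HEK293T Flp-in cells carrying an endogenous N-terminal HiBiT tag on IKZF2 were exposed to compound for 6 h at 0.1% DMSO. The dilution series was 11 doses at 3-fold, diluted from 1 mM. Nano-Glo HiBiT lytic luminescence, normalized to DMSO, gave DC50 for 50% degradation and Dmax across the concentration range, both reported in letter bins.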

IKZF1 = IKZF1 (Homo sapiens (Human), UniProt Q13422+Q96SW2); experiment: In vitro IKZF1 HiBit Assay (HEK293T Flp-in-HiBiT-IKZF1 stable cell line); format: cell-based; settings: HEK293T Flp-in-HiBiT-IKZF1 stable cell line, 6 hrs incubation; for DC50: read-out: IKZF1 HiBit DC50; for Dmax: HEK-293T, read-out: IKZF1 HiBit Dmax (%)
Chain of IKZF1 (Q13422 whole entry): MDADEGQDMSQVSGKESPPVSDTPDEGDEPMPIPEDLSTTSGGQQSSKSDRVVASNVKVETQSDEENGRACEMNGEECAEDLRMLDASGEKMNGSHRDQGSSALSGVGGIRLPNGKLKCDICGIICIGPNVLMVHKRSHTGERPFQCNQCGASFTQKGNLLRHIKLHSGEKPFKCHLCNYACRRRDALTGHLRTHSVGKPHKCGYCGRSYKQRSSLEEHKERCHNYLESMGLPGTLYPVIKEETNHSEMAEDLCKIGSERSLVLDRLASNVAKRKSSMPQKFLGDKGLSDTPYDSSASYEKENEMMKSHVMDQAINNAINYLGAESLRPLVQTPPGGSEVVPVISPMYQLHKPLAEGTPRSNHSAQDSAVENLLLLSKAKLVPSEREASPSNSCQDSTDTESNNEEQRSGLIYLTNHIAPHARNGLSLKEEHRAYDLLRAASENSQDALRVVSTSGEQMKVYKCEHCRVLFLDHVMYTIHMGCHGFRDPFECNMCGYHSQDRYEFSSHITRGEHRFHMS
Chain of IKZF1 (Q96SW2 whole entry): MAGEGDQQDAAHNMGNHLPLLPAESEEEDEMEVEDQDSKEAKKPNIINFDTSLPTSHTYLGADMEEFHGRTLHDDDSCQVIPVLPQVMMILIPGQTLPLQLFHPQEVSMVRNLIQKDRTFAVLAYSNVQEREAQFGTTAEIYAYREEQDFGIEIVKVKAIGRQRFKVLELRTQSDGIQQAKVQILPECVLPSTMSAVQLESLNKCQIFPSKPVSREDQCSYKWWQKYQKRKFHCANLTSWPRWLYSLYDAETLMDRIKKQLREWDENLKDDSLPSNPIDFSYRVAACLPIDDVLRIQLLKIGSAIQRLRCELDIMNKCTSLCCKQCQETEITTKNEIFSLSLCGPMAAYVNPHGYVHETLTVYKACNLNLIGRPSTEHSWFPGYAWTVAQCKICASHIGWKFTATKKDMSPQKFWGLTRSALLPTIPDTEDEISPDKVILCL
Chain of IKZF1 (Q16531 2-1140 partner): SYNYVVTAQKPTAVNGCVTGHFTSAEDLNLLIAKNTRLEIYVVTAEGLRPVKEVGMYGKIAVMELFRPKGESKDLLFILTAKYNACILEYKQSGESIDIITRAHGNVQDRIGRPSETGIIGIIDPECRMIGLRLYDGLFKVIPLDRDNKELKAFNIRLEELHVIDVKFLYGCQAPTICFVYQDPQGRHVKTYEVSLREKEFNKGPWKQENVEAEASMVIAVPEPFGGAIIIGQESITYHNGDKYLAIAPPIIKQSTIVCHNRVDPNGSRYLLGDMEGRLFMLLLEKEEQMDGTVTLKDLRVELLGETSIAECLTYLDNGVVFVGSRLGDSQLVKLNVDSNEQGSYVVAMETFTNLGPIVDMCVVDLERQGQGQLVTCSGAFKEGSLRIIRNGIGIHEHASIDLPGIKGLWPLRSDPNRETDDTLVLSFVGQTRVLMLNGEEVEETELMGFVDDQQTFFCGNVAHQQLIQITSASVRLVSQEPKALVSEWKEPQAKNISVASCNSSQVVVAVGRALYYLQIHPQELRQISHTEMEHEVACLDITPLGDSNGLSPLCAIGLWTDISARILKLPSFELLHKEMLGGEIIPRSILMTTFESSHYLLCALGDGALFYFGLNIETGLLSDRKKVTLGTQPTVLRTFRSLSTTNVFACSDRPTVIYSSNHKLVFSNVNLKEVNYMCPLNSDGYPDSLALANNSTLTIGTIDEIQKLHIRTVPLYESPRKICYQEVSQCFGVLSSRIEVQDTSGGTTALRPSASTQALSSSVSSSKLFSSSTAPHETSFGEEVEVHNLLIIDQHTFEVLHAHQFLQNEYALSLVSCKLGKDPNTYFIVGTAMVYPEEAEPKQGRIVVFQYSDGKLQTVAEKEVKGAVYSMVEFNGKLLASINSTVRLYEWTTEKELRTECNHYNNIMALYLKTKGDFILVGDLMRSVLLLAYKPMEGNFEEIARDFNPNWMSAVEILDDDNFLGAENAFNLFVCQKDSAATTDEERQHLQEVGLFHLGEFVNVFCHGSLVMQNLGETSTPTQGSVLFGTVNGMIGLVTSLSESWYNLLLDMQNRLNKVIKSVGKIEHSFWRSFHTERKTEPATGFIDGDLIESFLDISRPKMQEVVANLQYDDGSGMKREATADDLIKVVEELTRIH
Method in brief: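 HEK293T Flp-in cells carrying N-terminal HiBiT-tagged IKZF1 were exposed to compound (0.1% DMSO) for 6 h at 3000 cells/well. HiBiT luminescence was read after lytic LgBiT detection. DC50 and Dmax were taken from DMSO-normalized dose-response curves.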

CRBN/DDB1 = CRBN/DDB1 (Homo sapiens (Human), UniProt Q96SW2); experiment: IC50 measurements for binding to CRBN/DDB1 (HTRF); settings: His tagged CRBN+DDB, Cy5-labeled Thalidomide probe, one hour
Chain of CRBN/DDB1 (Q96SW2 whole entry, species assumed): as the sequence (Q96SW2 whole entry) above
Chain of CRBN/DDB1 (Q16531 whole entry partner, species assumed): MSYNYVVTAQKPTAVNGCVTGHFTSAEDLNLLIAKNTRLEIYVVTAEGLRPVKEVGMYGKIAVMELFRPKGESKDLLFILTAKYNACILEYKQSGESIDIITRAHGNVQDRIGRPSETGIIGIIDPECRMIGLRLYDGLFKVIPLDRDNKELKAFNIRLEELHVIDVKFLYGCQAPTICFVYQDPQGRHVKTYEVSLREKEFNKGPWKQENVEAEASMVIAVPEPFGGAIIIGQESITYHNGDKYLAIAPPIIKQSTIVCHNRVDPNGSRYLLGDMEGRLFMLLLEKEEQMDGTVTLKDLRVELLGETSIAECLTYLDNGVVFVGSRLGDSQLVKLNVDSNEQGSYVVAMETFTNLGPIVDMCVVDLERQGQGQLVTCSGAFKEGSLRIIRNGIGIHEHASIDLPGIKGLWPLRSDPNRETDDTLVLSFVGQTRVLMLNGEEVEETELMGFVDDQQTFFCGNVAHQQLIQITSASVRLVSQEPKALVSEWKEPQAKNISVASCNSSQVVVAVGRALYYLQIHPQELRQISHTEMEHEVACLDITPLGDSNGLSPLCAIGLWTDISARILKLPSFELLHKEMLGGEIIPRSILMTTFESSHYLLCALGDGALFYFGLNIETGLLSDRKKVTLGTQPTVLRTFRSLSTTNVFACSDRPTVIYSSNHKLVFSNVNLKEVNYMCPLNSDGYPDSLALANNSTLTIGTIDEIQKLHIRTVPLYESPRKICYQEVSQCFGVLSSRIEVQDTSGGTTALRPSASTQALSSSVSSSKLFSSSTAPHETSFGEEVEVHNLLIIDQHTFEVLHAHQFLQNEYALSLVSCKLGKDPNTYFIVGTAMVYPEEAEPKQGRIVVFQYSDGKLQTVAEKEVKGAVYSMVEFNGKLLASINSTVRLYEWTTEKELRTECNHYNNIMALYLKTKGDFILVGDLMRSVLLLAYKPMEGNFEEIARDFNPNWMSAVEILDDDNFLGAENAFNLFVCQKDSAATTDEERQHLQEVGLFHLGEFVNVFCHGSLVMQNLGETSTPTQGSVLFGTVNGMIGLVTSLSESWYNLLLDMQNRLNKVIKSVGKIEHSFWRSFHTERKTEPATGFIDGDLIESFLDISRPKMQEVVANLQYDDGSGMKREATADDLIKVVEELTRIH
Method in brief: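 HTRF competition binding with 2 nM His-tagged CRBN-DDB1 complex, 60 nM Cy5-thalidomide probe and 0.4 nM anti-His Tb cryptate in 50 mM HEPES pH 7.5, 1 mM TCEP, 0.01% Brij-35, 50 mM NaCl, 0.1% BSA. Read after 1 h at room temperature; IC50 from four-parameter dose-response fit.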

Chain of IKZF2 (Q9UKS7 whole entry): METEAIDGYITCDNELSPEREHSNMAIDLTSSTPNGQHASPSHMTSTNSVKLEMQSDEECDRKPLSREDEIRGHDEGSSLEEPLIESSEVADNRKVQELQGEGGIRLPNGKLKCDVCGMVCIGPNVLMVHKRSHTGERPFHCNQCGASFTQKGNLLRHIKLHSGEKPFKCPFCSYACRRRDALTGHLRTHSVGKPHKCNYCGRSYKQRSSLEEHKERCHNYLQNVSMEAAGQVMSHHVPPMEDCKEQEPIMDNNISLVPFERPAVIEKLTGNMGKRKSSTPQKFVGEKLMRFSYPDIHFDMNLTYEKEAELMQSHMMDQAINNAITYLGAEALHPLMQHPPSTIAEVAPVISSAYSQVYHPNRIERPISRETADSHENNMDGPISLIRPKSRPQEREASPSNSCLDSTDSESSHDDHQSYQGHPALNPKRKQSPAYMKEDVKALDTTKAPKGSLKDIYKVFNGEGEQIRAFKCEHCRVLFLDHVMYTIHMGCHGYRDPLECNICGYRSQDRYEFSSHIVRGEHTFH
Chain of IKZF2 (Q96SW2 whole entry): as the sequence (Q96SW2 whole entry) above
Chain of IKZF2 (Q16531 2-1140 partner): as the sequence (Q16531 2-1140 partner) above

Structure (SMILES): Nc1n[nH]c2c(CN3CC4COCC4C3)cc(-c3ccc4c(c3)CN(C3CCC(=O)NC3=O)C4=O)nc12 (stereo not shown) [Example 214, 3-(5-(3-amino-7-((tetrahydro-1H-furo[3,4-c]pyrrol-5 (3H)-yl)methyl)-1H-pyrazolo[4,3-b]pyridin-5-yl)-1-oxoisoindolin-2-yl) piperidine-2,6-dione]
- DC50 (IKZF2): 100 to 1000 nM
- Dmax (IKZF2): 60 to 80%
- DC50 (IKZF1): > 10000 nM
- Dmax (IKZF1): < 20%
- IC50 (CRBN/DDB1): 100 to 500 nM

Structure (SMILES): O=C1CCC(N2Cc3cc(-c4nc(CN5CCCC5)c5ccn(C6CCC6)c5n4)ccc3C2=O)C(=O)N1 (stereo not shown) [Example 217, 3-(5-(7-cyclobutyl-4-(pyrrolidin-1-ylmethyl)-7H-pyrrolo[2,3-d]pyrimidin-2-yl)-1-oxoisoindolin-2-yl) piperidine-2,6-dione]
- DC50 (IKZF2): 1 to 10 nM
- Dmax (IKZF2): 60 to 80%
- DC50 (IKZF1): > 10000 nM
- Dmax (IKZF1): < 20%
- IC50 (CRBN/DDB1): 500 to 1000 nM

Structure (SMILES): Cn1ccc2c(O[C@@H]3CCNC3)cc(-c3ccc4c(c3)CN([C@H]3CCC(=O)NC3=O)C4=O)nc21 [Example 219, (S)-3-(5-(1-methyl-4-(((R)-pyrrolidin-3-yl)oxy)-1H-pyrrolo[2,3-b]pyridin-6-yl)-1-oxoisoindolin-2-yl) piperidine-2,6-dione]
- DC50 (IKZF2): 10 to 100 nM
- Dmax (IKZF2): 40 to 60%
- DC50 (IKZF1): 100 to 1000 nM
- Dmax (IKZF1): 20 to 40%
- IC50 (CRBN/DDB1): 1000 to 5000 nM

Structure (SMILES): O=C1CCC(N2Cc3cc(-c4cc(CN5CCCC5)c5[nH]nc(C6CCC6)c5n4)ccc3C2=O)C(=O)N1 (stereo not shown) [Example 224, 3-(5-(3-cyclobutyl-7-(pyrrolidin-1-ylmethyl)-1H-pyrazolo[4,3-b]pyridin-5-yl)-1-oxoisoindolin-2-yl) piperidine-2,6-dione]
- DC50 (IKZF2): < 1 nM
- Dmax (IKZF2): 60 to 80%
- DC50 (IKZF1): 10 to 100 nM
- Dmax (IKZF1): 40 to 60%
- IC50 (CRBN/DDB1): 1000 to 5000 nM

Structure (SMILES): O=C1CCC(N2Cc3cc(-c4cc(CN5CCCC5)c5ncn(C6CS(=O)(=O)C6)c5n4)ccc3C2=O)C(=O)N1 (stereo not shown) [Example 225, 3-(5-(3-(1,1-dioxidothietan-3-yl)-7-(pyrrolidin-1-ylmethyl)-3H-imidazo[4,5-b]pyridin-5-yl)-1-oxoisoindolin-2-yl) piperidine-2,6-dione]
- DC50 (IKZF2): < 1 nM
- Dmax (IKZF2): 20 to 40%
- DC50 (IKZF1): > 10000 nM
- Dmax (IKZF1): < 20%
- IC50 (CRBN/DDB1): 500 to 1000 nM

Structure (SMILES): Cn1ccc2c(C3CCCCN3)cc(-c3ccc4c(c3)CN([C@H]3CCC(=O)NC3=O)C4=O)nc21 (stereo partly drawn) [Example 231, (3S)-3-(5-(1-methyl-4-(piperidin-2-yl)-1H-pyrrolo[2,3-b]pyridin-6-yl)-1-oxoisoindolin-2-yl) piperidine-2,6-dione]
- DC50 (IKZF2): 10 to 100 nM
- Dmax (IKZF2): 40 to 60%
- DC50 (IKZF1): 1 to 10 nM
- Dmax (IKZF1): 20 to 40%
- IC50 (CRBN/DDB1): 100 to 500 nM

Structure (SMILES): O=C1CCC(N2Cc3cc(-c4cc(CN5CCCC5)c5c(n4)C(=O)NC5)ccc3C2=O)C(=O)N1 (stereo not shown) [Example 233, 3-(1-ox0-5-(7-oxo-4-(pyrrolidin-1-ylmethyl)-6,7-dihydro-5H-pyrrolo[3,4-b]pyridin-2-yl)isoindolin-2-yl) piperidine-2,6-dione]
- DC50 (IKZF2): > 10000 nM
- Dmax (IKZF2): < 20%
- DC50 (IKZF1): > 10000 nM
- Dmax (IKZF1): < 20%
- IC50 (CRBN/DDB1): 1000 to 5000 nM

Structure (SMILES): Nc1nn(C2COC2)c2c(CN3CCCC3)cc(-c3ccc4c(c3)CN(C3CCC(=O)NC3=O)C4=O)nc12 (stereo not shown) [Example 234, 3-(5-(3-amino-1-(oxetan-3-yl)-7-(pyrrolidin-1-ylmethyl)-1H-pyrazolo[4,3-b]pyridin-5-yl)-1-oxoisoindolin-2-yl) piperidine-2,6-dione]
- DC50 (IKZF2): 10 to 100 nM
- Dmax (IKZF2): 60 to 80%
- DC50 (IKZF1): 1000 to 10000 nM
- Dmax (IKZF1): 20 to 40%
- IC50 (CRBN/DDB1): 1000 to 5000 nM

Structure (SMILES): COc1n[nH]c2c(CN3CCCC3)cc(-c3ccc4c(c3)CN(C3CCC(=O)NC3=O)C4=O)nc12 (stereo not shown) [Example 235, 3-(5-(3-methoxy-7-(pyrrolidin-1-ylmethyl)-1H-pyrazolo[4,3-b]pyridin-5-yl)-1-oxoisoindolin-2-yl) piperidine-2,6-dione]
- DC50 (IKZF2): 1 to 10 nM
- Dmax (IKZF2): 60 to 80%
- DC50 (IKZF1): 100 to 1000 nM
- Dmax (IKZF1): 20 to 40%
- IC50 (CRBN/DDB1): 5000 to 10000 nM

Structure (SMILES): CC(C)Oc1n[nH]c2c(CN3CCCC3)cc(-c3ccc4c(c3)CN(C3CCC(=O)NC3=O)C4=O)nc12 (stereo not shown) [Example 238, 3-(5-(3-isopropoxy-7-(pyrrolidin-1-ylmethyl)-1H-pyrazolo[4,3-b]pyridin-5-yl)-1-oxoisoindolin-2-yl) piperidine-2,6-dione]
- DC50 (IKZF2): < 1 nM
- Dmax (IKZF2): 60 to 80%
- DC50 (IKZF1): > 10000 nM
- Dmax (IKZF1): < 20%
- IC50 (CRBN/DDB1): 1000 to 5000 nM

Structure (SMILES): CC(C)n1ccc2c(CN3CCCC3)cc(-c3ccc4c(c3)CN(C3CCC(=O)NC3=O)C4=O)nc21 (stereo not shown) [Example 299, 3-(5-(1-isopropyl-4-(pyrrolidin-1-ylmethyl)-1H-pyrrolo[2,3-b]pyridin-6-yl)-1-oxoisoindolin-2-yl) piperidine-2,6-dione]
- DC50 (IKZF2): 1 to 10 nM
- Dmax (IKZF2): 60 to 80%
- DC50 (IKZF1): > 10000 nM
- Dmax (IKZF1): < 20%
- IC50 (CRBN/DDB1): 500 to 1000 nM

Structure (SMILES): Cn1ccc2c(CN3CCC(S(C)(=O)=O)CC3)cc(-c3ccc4c(c3)CN(C3CCC(=O)NC3=O)C4=O)nc21 (stereo not shown) [Example 300, 3-(5-(1-methyl-4-((4-(methylsulfonyl)piperidin-1-yl)methyl)-1H-pyrrolo[2,3-b]pyridin-6-yl)-1-oxoisoindolin-2-yl) piperidine-2,6-dione]
- DC50 (IKZF2): 10 to 100 nM
- Dmax (IKZF2): 60 to 80%
- DC50 (IKZF1): > 10000 nM
- Dmax (IKZF1): < 20%
- IC50 (CRBN/DDB1): 1000 to 5000 nM

Structure (SMILES): Cn1ccc2c(CN3CCC(F)CC3)cc(-c3ccc4c(c3)CN(C3CCC(=O)NC3=O)C4=O)nc21 (stereo not shown) [Example 301, 3-(5-(4-((4-fluoropiperidin-1-yl)methyl)-1-methyl-1H-pyrrolo[2,3-b]pyridin-6-yl)-1-oxoisoindolin-2-yl) piperidine-2,6-dione]
- DC50 (IKZF2): < 1 nM
- Dmax (IKZF2): > 80%
- DC50 (IKZF1): 10 to 100 nM
- Dmax (IKZF1): 20 to 40%
- IC50 (CRBN/DDB1): 1000 to 5000 nM

Structure (SMILES): Cn1ccc2c(CN3CCCCCC3)cc(-c3ccc4c(c3)CN(C3CCC(=O)NC3=O)C4=O)nc21 (stereo not shown) [Example 302, 3-(5-(4-(azepan-1-ylmethyl)-1-methyl-1H-pyrrolo[2,3-b]pyridin-6-yl)-1-oxoisoindolin-2-yl) piperidine-2,6-dione]
- DC50 (IKZF2): < 1 nM
- Dmax (IKZF2): > 80%
- DC50 (IKZF1): 1 to 10 nM
- Dmax (IKZF1): 20 to 40%
- IC50 (CRBN/DDB1): 1000 to 5000 nM

Structure (SMILES): Cn1ccc2c(CN3CCC(O)C3)cc(-c3ccc4c(c3)CN(C3CCC(=O)NC3=O)C4=O)nc21 (stereo not shown) [Example 303, 3-(5-(4-((3-hydroxypyrrolidin-1-yl)methyl)-1-methyl-1H-pyrrolo[2,3-b]pyridin-6-yl)-1-oxoisoindolin-2-yl) piperidine-2,6-dione]
- DC50 (IKZF2): 1 to 10 nM
- Dmax (IKZF2): > 80%
- DC50 (IKZF1): 10 to 100 nM
- Dmax (IKZF1): 20 to 40%
- IC50 (CRBN/DDB1): 1000 to 5000 nM

Structure (SMILES): Cn1ccc2c(CN3CCC(F)C3)cc(-c3ccc4c(c3)CN(C3CCC(=O)NC3=O)C4=O)nc21 (stereo not shown) [Example 304, 3-(5-(4-((3-fluoropyrrolidin-1-yl)methyl)-1-methyl-1H-pyrrolo[2,3-b]pyridin-6-yl)-1-oxoisoindolin-2-yl) piperidine-2,6-dione]
- DC50 (IKZF2): 1 to 10 nM
- Dmax (IKZF2): > 80%
- DC50 (IKZF1): > 10000 nM
- Dmax (IKZF1): < 20%
- IC50 (CRBN/DDB1): 1000 to 5000 nM

Structure (SMILES): Cn1ccc2c(CN3CCC(O)CC3)cc(-c3ccc4c(c3)CN(C3CCC(=O)NC3=O)C4=O)nc21 (stereo not shown) [Example 305, 3-(5-(4-((4-hydroxypiperidin-1-yl)methyl)-1-methyl-1H-pyrrolo[2,3-b]pyridin-6-yl)-1-oxoisoindolin-2-yl) piperidine-2,6-dione]
- DC50 (IKZF2): 1 to 10 nM
- Dmax (IKZF2): > 80%
- DC50 (IKZF1): > 10000 nM
- Dmax (IKZF1): < 20%
- IC50 (CRBN/DDB1): 1000 to 5000 nM

Structure (SMILES): Cn1ccc2c(CN3CC(O)C3)cc(-c3ccc4c(c3)CN(C3CCC(=O)NC3=O)C4=O)nc21 (stereo not shown) [Example 306, 3-(5-(4-((3-hydroxyazetidin-1-yl)methyl)-1-methyl-1H-pyrrolo[2,3-b]pyridin-6-yl)-1-oxoisoindolin-2-yl) piperidine-2,6-dione]
- DC50 (IKZF2): 10 to 100 nM
- Dmax (IKZF2): > 80%
- DC50 (IKZF1): 100 to 1000 nM
- Dmax (IKZF1): 20 to 40%
- IC50 (CRBN/DDB1): 100 to 500 nM

Structure (SMILES): Cn1ccc2c(CN3CC4CCC(C4)C3)cc(-c3ccc4c(c3)CN(C3CCC(=O)NC3=O)C4=O)nc21 (stereo not shown) [Example 308, 3-(5-(4-((3-azabicyclo[3.2.1]octan-3-yl)methyl)-1-methyl-1H-pyrrolo[2,3-b]pyridin-6-yl)-1-oxoisoindolin-2-yl) piperidine-2,6-dione]
- DC50 (IKZF2): 1 to 10 nM
- Dmax (IKZF2): > 80%
- DC50 (IKZF1): 1 to 10 nM
- Dmax (IKZF1): 20 to 40%
- IC50 (CRBN/DDB1): 100 to 500 nM

Structure (SMILES): Cn1ccc2c(CN3CCC(C#N)CC3)cc(-c3ccc4c(c3)CN(C3CCC(=O)NC3=O)C4=O)nc21 (stereo not shown) [Example 309, 1-((6-(2-(2,6-dioxopiperidin-3-yl)-1-oxoisoindolin-5-yl)-1-methyl-1H-pyrrolo[2,3-b]pyridin-4-yl)methyl) piperidine-4-carbonitrile]
- DC50 (IKZF2): 1 to 10 nM
- Dmax (IKZF2): > 80%
- DC50 (IKZF1): 1000 to 10000 nM
- Dmax (IKZF1): 20 to 40%
- IC50 (CRBN/DDB1): 1000 to 5000 nM

— patent US20250214991A1 (Oncopia Therapeutics, Inc. d/b/a/ SK Life Science Labs, priority 2022, published 2025)
